Measurements from ChEMBL document CHEMBL3045111, “Synthesis and herbicidal activities of novel 3-(substituted benzyloxy or phenoxy)-6-methyl-4-(3-trifluoromethylphenyl)pyridazine derivatives” (2012).

Assays:
Type in all cases: functional
[1] = test system: Amaranthus retroflexus; assay: Post-emergence herbicidal activity against one-leaf stage of Amaranthus retroflexus under greenhouse condition at 750 g /ha measured after 24 days by spray method; settings: 576 h, read-out: GI
[2] = test system: Brassica rapa subsp. oleifera; assay: Post-emergence herbicidal activity against one-leaf stage Brassica rapa subsp. oleifera under greenhouse condition at 750 g /ha measured after 24 days by spray method; settings: 576 h, read-out: GI
[3] = test system: Brassica rapa subsp. oleifera; assay: Pre-emergence herbicidal activity against Brassica rapa subsp. oleifera under greenhouse condition at 750 g /ha measured after 24 days by spray method; settings: 576 h, read-out: GI
[4] = test system: Amaranthus retroflexus; assay: Pre-emergence herbicidal activity against Amaranthus retroflexus under greenhouse condition at 750 g /ha measured after 24 days by spray method; settings: 576 h, read-out: GI
[5] = test system: Digitaria; assay: Pre-emergence herbicidal activity against Digitaria adscendens under greenhouse condition at 750 g /ha measured after 24 days by spray method; settings: in Digitaria adscendens, 576 h, read-out: GI
[6] = test system: Echinochloa crus-galli; assay: Post-emergence herbicidal activity against one-leaf stage of Echinochloa crus-galli (barnyard grass) under greenhouse condition at 750 g /ha measured after 24 days by spray method; settings: 576 h, read-out: GI
[7] = test system: Echinochloa crus-galli; assay: Pre-emergence herbicidal activity against Echinochloa crus-galli (barnyard grass) under greenhouse condition at 750 g /ha measured after 24 days by spray method; settings: 576 h, read-out: GI
[8] = test system: Spirodela polyrhiza; assay: Bleaching herbicidal activity in Spirodela polyrhiza fronds cultured in compound-containing in medium assessed as chlorophyll inhibition at 1 ug/ml after 7 days; settings: 168 h
[9] = test system: Spirodela polyrhiza; assay: Bleaching herbicidal activity in Spirodela polyrhiza fronds cultured in compound-containing in medium assessed as chlorophyll inhibition at 10 ug/ml after 7 days; settings: 168 h
[10] = test system: Digitaria; assay: Post-emergence herbicidal activity against one-leaf stage of Digitaria adscendens under greenhouse condition at 750 g /ha measured after 24 days by spray method; settings: in Digitaria adscendens, 576 h, read-out: GI

Row | Structure (SMILES) | inhibition of growth at 750 g/ha [1] [%] | inhibition of growth at 750 g/ha [2] [%] | inhibition of growth at 750 g/ha [3] [%] | inhibition of growth at 750 g/ha [4] [%] | inhibition of growth at 750 g/ha [5] [%] | inhibition of growth at 750 g/ha [6] [%] | inhibition of growth at 750 g/ha [7] [%] | inhibition at 1 µg/mL [8] [%] | inhibition at 10 µg/mL [9] [%] | inhibition of growth at 750 g/ha [10] [%]
1 | Cc1cc(-c2cccc(C(F)(F)F)c2)c(Oc2cccc(Cl)c2)nn1 | 63 | 100 | 11 | 0 | 7 | 57 | 6 | 72 | 72 | 74
2 | Cc1cc(-c2cccc(C(F)(F)F)c2)c(OCc2ccc(Cl)cc2Cl)nn1 | 35 | 43 | 2 | 3 | 0 | 0 | 18 | 38 | 44 | 0
3 | Cc1cc(-c2cccc(C(F)(F)F)c2)c(Oc2ccccc2C)nn1 | 50 | 55 | 0 | 0 | 7 | 24 | 0 | 8 | 73 | 11
4 | Cc1cc(-c2cccc(C(F)(F)F)c2)c(OCc2ccc(F)cc2)nn1 | 41 | 87 | 8 | 8 | 0 | 2 | 24 | 76 | 87 | 56
5 | Cc1cc(-c2cccc(C(F)(F)F)c2)c(OCc2ccccc2F)nn1 | 39 | 79 | 28 | 4 | 10 | 19 | 13 | 65 | 71 | 0
6 | Cc1cc(-c2cccc(C(F)(F)F)c2)c(Oc2c(C)cccc2C)nn1 | 34 | 0 | 0 | 19 | 13 | 0 | 2 | 8 | 9 | 0
7 | Cc1ccc(COc2nnc(C)cc2-c2cccc(C(F)(F)F)c2)cc1 | 22 | 41 | 0 | 9 | 4 | 6 | 28 | 20 | 31 | 0
8 | COc1ccc(COc2nnc(C)cc2-c2cccc(C(F)(F)F)c2)cc1 | 16 | 13 | 0 | 0 | 48 | 0 | 39 | 0 | 72 | 20
9 | Cc1cc(C)cc(COc2nnc(C)cc2-c2cccc(C(F)(F)F)c2)c1 | 10 | 36 | 0 | 2 | 0 | 11 | 1 | 0 | 71 | 24
10 | Cc1ccc(Oc2nnc(C)cc2-c2cccc(C(F)(F)F)c2)c(C)c1 | 64 | 45 | 0 | 0 | 0 | 18 | 15 | 0 | 41 | 19
11 | Cc1cc(-c2cccc(C(F)(F)F)c2)c(OCc2ccc(Cl)cc2)nn1 | 45 | 72 | 17 | 9 | 6 | 0 | 21 | 53 | 66 | 0
